In US20220411846A1, “METHOD FOR PREDICTING THE VIRULENCE AND PATHOGENICITY OF GRAM-NEGATIVE BACTERIAL STRAINS” (priority 2019, published 2022):

Test system: strains of E. cloacae complex
Assay: E. cloacae complex polymyxin B survival assay
Assay type: cell-based, Enterobacter cloacae complex
Conditions: 5 strains expressing 2-hydroxymyristate vs 5 strains not expressing it; 1, 3 and 10 μg/ml; 4 hours
Method: Strains of the Enterobacter complex were selected.
The Enterobacter strains preserved in a tube frozen with 30% glycerol are transplanted in a planktonic culture in 20 ml of an LB culture medium. After incubation at 37° C. overnight, 1 ml of the culture diluted to 10^7 is brought into contact with increasing concentrations of polymyxin B (1 μg/ml, 3 μg/ml and 10 μg/ml). A tube without antibiotic is added as a control.
All the tubes are incubated at 37° C. with shaking for an additional 4 hours. The cultures are then diluted and spread on LB agar Petri dishes.
The dishes are incubated at 37° C. overnight and the colonies are counted.
Percentage survival is computed as follows:
(CFU polymyxin B/CFU control)×100
5 strains of E. cloacae complex expressing 2-hydroxymyristate (2HM) and 5 strains of E. cloacae complex not expressing 2-hydroxymyristate (2HM) were exposed to different concentrations of polymyxin B for 4 hours.

polymyxin B [polymixin B]
Survival of strains after exposure to polymyxin B (FIG. 6): presence of 2-OH myristate on Lipid A generates resistance
